We go through four molecules from ChEMBL document CHEMBL1123432, “Methotrexate analogues. 28. Synthesis and biological evaluation of new gamma-monoamides of aminopterin and methotrexate” (J Med Chem, 1986).

The test system of assay [1] is Mus musculus. The assay can be described thus: Median Survival days of mice infected with L1210 leukemia cells at dose 40 mg/kg relative to that of 9 days for control in expt 1. Type of assay: functional.
For assay [2], the species on record is Mus musculus. Put plainly: Compound was tested against weight change in mice with L1210 leukemia cells on 10 th Day at Dose 80 mg / kg. Particulars: at 80 mg/kg.
The species entered for assay [3] is Mus musculus. Put plainly: Compound was tested against weight change in mice with L1210 leukemia cells on 10 th Day at Dose 40 mg / kg. As to conditions: at 40 mg/kg.
In assay [4] the test system is Mus musculus. Put plainly: Increase in life span of mice with L1210 leukemia cells at a dose of 40 mg/kg in exp 1. Format: functional.
Assay [5] deals with Mus musculus. The assay can be described thus: Median Survival days of mice infected with L1210 leukemia cells at dose 80 mg/kg relative to that of 9 days for control in expt 2. Format: functional.
In assay [6] the test system is Mus musculus. The assay can be described thus: Increase in life span of mice with L1210 leukemia cells at a dose of 80 mg/kg. Type of assay: functional.
Assay [7] concerns Mus musculus. The assay can be described thus: Increase in life span of mice with L1210 leukemia cells at a dose of 80 mg/kg in exp 1. Type of assay: functional.
The subject of assay [8] is L1210. Put plainly: Compound was tested for its inhibitory concentration to inhibit the growth of wild type L1210 cells. Type of assay: functional, cell-based, Mus musculus.
Assay [9] has as its system Mus musculus. Put plainly: Median Survival days of mice infected with L1210 leukemia cells at dose 80 mg/kg relative to that of 9 days for control in expt 1. Type of assay: functional.
For assay [10], the system named is Mus musculus. Put plainly: Median Survival days of mice infected with L1210 leukemia cells at dose 100 mg/kg relative to that of 9 days for control in expt 2. Format: functional.
Assay [11] concerns Mus musculus. The assay can be described thus: Increase in life span of mice with L1210 leukemia cells at a dose of 100 mg/kg. Type of assay: functional.
Assay [12] deals with T1, Dihydrofolate reductase (Mus musculus) (UniProt P00375).
T1 sequence (whole entry): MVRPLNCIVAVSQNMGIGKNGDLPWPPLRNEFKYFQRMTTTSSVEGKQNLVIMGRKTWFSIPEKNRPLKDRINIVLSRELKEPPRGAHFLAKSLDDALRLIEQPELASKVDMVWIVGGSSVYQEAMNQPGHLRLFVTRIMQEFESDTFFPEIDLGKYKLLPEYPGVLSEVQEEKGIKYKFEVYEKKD
Particulars: L1210.
Description: Compound was tested for inhibition of the enzyme DiHydroFolate Reductase (DHFR) from murine L1210 leukemia cells

Assay [13] deals with T2, Dihydrofolate reductase (Mus musculus, UniProt P00375).
T2 sequence (P00375 whole entry): T1 sequence (whole entry)
Put plainly: biochemical.
Description: Compound was tested for its inhibitory concentration to inhibit the enzyme Dihydro Folate Reductase (DHFR) from murine L1210 leukemia cells.

The species entered for assay [14] is Mus musculus. The assay can be described thus: Compound was tested against weight change in mice with L1210 leukemia cells on 7 th Day at Dose 100 mg / kg. As to conditions: at 100 mg/kg. Format: functional.
The test system of assay [15] is L1210. Put plainly: Compound was tested for its inhibitory concentration to inhibit the growth of wild type L1210 cells and a subline (L1210 / R81). As to conditions: Mus musculus. Type of assay: functional, cell-based.
Assay [16] has as its target T2, Dihydrofolate reductase. Put plainly: Compound was tested for its inhibitory concentration to inhibit the enzyme Dihydro Folate Reductase ( DHFR ) from murine L1210 leukemia cells. Type of assay: cell-based.
Assay [17] relates to L1210. The assay can be described thus: Compound was tested for its inhibitory concentration to inhibit the growth of wild type L1210 cells and a subline ( L1210 / R81 ). Format: functional, cell-based. As to conditions: Mus musculus.
The species named for assay [18] is Homo sapiens. The assay can be described thus: Compound was tested for its inhibitory concentration against human leukemic lymphoblasts (CEM Cells) and a resistant subline (CEM / MTX). Type of assay: functional. As to conditions: CCRF-CEM.
For assay [19], the species on record is Homo sapiens. Put plainly: Compound was tested for its inhibitory concentration against human leukemic lymphoblasts (CEM Cells). Format: functional. As to conditions: CCRF-CEM.
The subject of assay [20] is L1210. Put plainly: cells. As to conditions: Mus musculus.
Description: Compound was tested for its inhibitory concentration to inhibit the growth of wild type L1210 cells; Range=0.01 to 0.03
The species named for assay [21] is Mus musculus. Put plainly: Compound was tested against weight change in mice with L1210 leukemia cells on 10 th Day at Dose 60 mg / kg. As to conditions: at 60 mg/kg.
The subject of assay [22] is Mus musculus. The assay can be described thus: Median Survival days of mice infected with L1210 leukemia cells at dose 20 mg/kg relative to that of 9 days for control in expt 1. Format: functional.
For assay [23], the system named is Mus musculus. The assay can be described thus: Increase in life span of mice with L1210 leukemia cells at a dose of 100 mg/kg in expt 1. Format: functional.
For assay [24], the species on record is Mus musculus. The assay can be described thus: Compound was tested against weight change in mice with L1210 leukemia cells on 10 th Day at Dose 20 mg / kg. Particulars: at 20 mg/kg.
Assay [25] concerns Mus musculus. The assay can be described thus: Median Survival days of mice infected with L1210 leukemia cells at dose 60 mg/kg relative to that of 9 days for control in expt 2. Type of assay: functional.
The subject of assay [26] is Mus musculus. Put plainly: Increase in life span of mice with L1210 leukemia cells at a dose of 80 mg/kg in expt 1. Type of assay: functional.
For assay [27], the system named is Mus musculus. The assay can be described thus: Increase in life span of mice with L1210 leukemia cells at a dose of 60 mg/kg in expt 1. Type of assay: functional.
In assay [28] the test system is Mus musculus. Put plainly: Increase in life span of mice with L1210 leukemia cells at a dose of 40 mg/kg in expt 1. Type of assay: functional.

A word on the ILS: it is how much longer treated animals lived than controls. A high value points to a large benefit in survival. A word on the IC50: it is the concentration needed to halve the response being measured. Low readings indicate higher potency, high ones lower potency.

Several values for one entry are separate records, joined by “and”; a condition that tells them apart may be missing. Equal values may be shown once.

In the case of `Nc1nc(N)c2nc(CNc3ccc(C(=O)NC(CCC(=O)NCc4c(Cl)cccc4Cl)C(=O)O)cc3)cnc2n1` (stereo unspecified), the Survival in [1] came to 13 days; in assay [5], 13 days; in assay [9], 14 days; in assay [10], 15 days. The Weight change in [2] is 3% and 9%; in assay [3], 6%; in assay [14] it was -3%. Besides, the ILS at 40 mg/kg in assay [4] stood at 56%. The ILS at 80 mg/kg in [6] and in assay [7] was 44% throughout. In addition, the concentration for half-maximal inhibition (IC50) in assay [8] (Mus musculus, L1210) came out at 3.7 nM; in assay [8] (l1210), 2 nM; in assay [13], 80 nM; in assay [15], 61 µM. The molecule further registered an ILS at 100 mg/kg in assay [11] of 67%. This molecule showed an IC50/[E] in assay [12] of 2.
For `Nc1nc(N)c2nc(CNc3ccc(C(=O)NC(CCC(=O)Nc4ccc(O)c(O)c4)C(=O)O)cc3)cnc2n1` (stereo unspecified), the IC50 in assay [8] (l1210) is 37 nM and 6 nM; in assay [16] it was 57 nM; in assay [17], 23 µM.
For `CN(Cc1cnc2nc(N)nc(N)c2n1)c1ccc(C(=O)N[C@@H](CCC(=O)O)C(=O)O)cc1` [METHOTREXATE], the IC50 in assay [18] came to 6.6 µM; in assay [19], 32 nM; in assay [20], 30 nM.
Turning to `CN(Cc1cnc2nc(N)nc(N)c2n1)c1ccc(C(=O)NC(CCC(=O)Nc2ccc3c(c2)OCO3)C(=O)O)cc1` (stereo unspecified), the Survival stood at 13 days in assay [1]; 16 days in [5]; 11 days in assay [22]; 15 days in assay [9]; 16 days in assay [10]; 14 days in [25]. Moreover, the Weight change in assay [2] is 6% and -5%; in [3] it was 10%; in assay [21], 3%; in assay [24], 11%; in assay [14], 1%. The same molecule displayed an ILS at 100 mg/kg in [23] of 78%. Also, the IC50 was 2.9 nM in assay [8] (Mus musculus, L1210); 42 nM in assay [13]; 25 µM in [15]. In addition, the IC50/[E] in [12] came out at 1.1. In assay [26], this molecule came in with an ILS at 80 mg/kg of 67%. The molecule further showed an ILS at 60 mg/kg in [27] of 56%. This molecule came in with an ILS at 40 mg/kg in assay [28] of 78%.
